# Like-named read-outs stand apart in the source and are kept apart here.
# Legend:
# wild oat = experiment: Test B postemergence herbicide test; type: in vivo, Avena fatua
# Procedure, shortened: (§1)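 Formulated test chemicals went onto postemergence plants measuring 2 to 18 cm, at one to four leaves. For the paddy assay, species had reached two leaves. Scoring took place 13–15 days later by eye, relative to untreated plants, using 0 for no effect up to 100 for full control.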
# velvetleaf = experiment: Test B pre-/postemergence herbicide test; type: in vivo, Abutilon theophrasti; details: for Plant response rating (0 to 100 scale), Velvetleaf: 0 is no effect, preemergence
# Procedure, shortened: (§2)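 Response was scored visually 13 to 15 days after treatment against untreated greenhouse controls, 0 meaning no effect and 100 complete control. Formulations (solvent mixture plus surfactant) went onto soil after planting, onto foliage of 1- to 4-leaf plants, and onto 2-leaf plants in a flooded paddy set including rice and barnyardgrass.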
# wheat = experiment: Test B postemergence herbicide test; type: in vivo, Triticum aestivum; design: key to Wheat plant response rating: 0 = no effect, 100 = complete control
# Procedure, shortened: as §1
# blackgrass = experiment: Test B postemergence herbicide test; type: in vivo, Alopecurus myosuroides
# Procedure, shortened: (§3)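 Plants grow to 1- to 4-leaf stage (2–18 cm) for postemergence spraying, or to 2-leaf stage for the paddy test. Formulated compound is applied. Greenhouse holding lasts 13–15 days. Response is scored visually relative to controls, 0 no effect to 100 complete control; a dash means no result.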
# morningglory = experiment: Test B pre-/postemergence herbicide test; type: in vivo, Ipomoea coccinea; details: for Plant response rating (0 to 100 scale), Morningglory: 0 is no effect, preemergence
# Procedure, shortened: (§4)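 Species tested were Echinochloa crus-galli, Ipomoea coccinea, Xanthium strumarium and Oryza sativa, treated both before emergence and at the 1- to 4-leaf stage; rice and barnyardgrass were also tested under flooding at 2 leaves. Greenhouse incubation lasted 13–15 days before visual 0–100 scoring.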
# lambsquarters = experiment: Test B pre-/postemergence herbicide test; type: in vivo, Chenopodium album; details: for Plant response rating (0 to 100 scale), Lambsquarters: 0 is no effect, preemergence
# Procedure, shortened: as §2
# [1] = tested on: small flower umbrella sedge; experiment: Test B flooded paddy test; type: in vivo, Cyperus difformis; details: 1000 g ai/ha, scale 0 to 100 (0 no effect, 100 complete control)
# Procedure, shortened: as §3
# cocklebur = experiment: Test B pre-/postemergence herbicide test; type: in vivo, Xanthium strumarium; details: for Plant response rating (0 to 100 scale), Cocklebur: 0 is no effect, preemergence
# Procedure, shortened: as §4
# ducksalad = experiment: Test B flooded paddy test; type: in vivo, Heteranthera limosa; details: 1000 g ai/ha, scale 0 to 100 (0 no effect, 100 complete control)
# Procedure, shortened: as §3
# barnyardgrass = experiment: Test B flooded paddy test; type: in vivo, Echinochloa crus-galli; details: 1000 g ai/ha, scale 0 to 100 (0 no effect, 100 complete control)
# Procedure, shortened: as §3
# Surinam grass = experiment: Test B pre-/postemergence herbicide test; type: in vivo, Urochloa decumbens; details: for Plant response rating (0 to 100 scale), Surinam Grass: 0 is no effect, preemergence
# Procedure, shortened: as §2
# giant foxtail = experiment: Test B pre-/postemergence herbicide test; type: in vivo, Setaria faberi; details: for Plant response rating (0 to 100 scale), Foxtail, Giant: 0 is no effect, preemergence
# Procedure, shortened: as §2
# corn = experiment: Test B pre-/postemergence herbicide test; type: in vivo, Zea mays; details: for Plant response rating (0 to 100 scale), Corn: 0 is no effect, preemergence
# Procedure, shortened: as §2
# rice = experiment: Test B flooded paddy test; type: in vivo, Oryza sativa; details: 1000 g ai/ha, scale 0 to 100 (0 no effect, 100 complete control)
# Procedure, shortened: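 Postemergence plants were sprayed with formulated test chemicals at 2 to 18 cm height (1- to 4-leaf stage); paddy species were grown to the 2-leaf stage. After 13 to 15 days in a greenhouse, injury was rated visually against untreated controls on a 0–100 scale (0 = no effect, 100 = complete control).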
# pigweed = experiment: Test B pre-/postemergence herbicide test; type: in vivo, Amaranthus retroflexus; details: for Plant response rating (0 to 100 scale), Pigweed: 0 is no effect, preemergence
# Procedure, shortened: as §2
# [2] = 125 g ai/ha, 100 is complete control
# [3] = Postemergence, 500 g ai/ha, scale 0 (no effect) to 100 (complete control)
# [4] = postemergence, 125 g ai/ha, scale 0 to 100
smiles,measurement,setting,value
"CCOC(=O)c1cccc(NC(=O)c2nn(C(C)(C)C)nc2CC)c1 [Compound 360, ethyl 3-[[[2-(1,1-dimethylethyl)-5-ethyl-2H-1,2,3-triazol-4-yl]carbonyl]amino]benzoate]",pest or weed control at 125 g/ha,"wild oat; Avena fatua, post-emergence, 336 h, 125 g ai/ha, visual rating, scale 0 (no effect) to 100 (complete control), read-out: Oat, Wild plant response rating",40%
same,pest or weed control at 500 g/ha,"wild oat; Avena fatua, post-emergence, 336 h, postemergence, 500 g ai/ha, scale 0 to 100, 0 is no effect, 100 is complete control, read-out: Oat, Wild plant response rating",60%
same,"Plant response rating (0 to 100 scale), Velvetleaf",velvetleaf; [2],20
same,pest or weed control at 125 g/ha,"velvetleaf; Abutilon theophrasti, post-emergence, 336 h, 125 g ai/ha, visual rating, scale 0 (no effect) to 100 (complete control), read-out: Velvetleaf plant response rating",40%
same,pest or weed control at 500 g/ha,"velvetleaf; Abutilon theophrasti, post-emergence, 336 h, postemergence, 500 g ai/ha, scale 0 to 100, 0 is no effect, 100 is complete control, read-out: Velvetleaf plant response rating",50%
same,plant injury at 125 g/ha,"wheat; Triticum aestivum, post-emergence, 336 h, 125 g ai/ha, visual rating, scale 0 (no effect) to 100 (complete control), read-out: Wheat plant response rating",30%
same,plant injury at 500 g/ha,"wheat; Triticum aestivum, post-emergence, 336 h, postemergence, 500 g ai/ha, scale 0 to 100, 0 is no effect, 100 is complete control, read-out: Wheat plant response rating",40%
same,pest or weed control at 125 g/ha,"blackgrass; Alopecurus myosuroides, post-emergence, 336 h, 125 g ai/ha, visual rating, scale 0 (no effect) to 100 (complete control), read-out: Blackgrass plant response rating",30%
same,pest or weed control at 500 g/ha,"blackgrass; Alopecurus myosuroides, post-emergence, 336 h, postemergence, 500 g ai/ha, scale 0 to 100, 0 is no effect, 100 is complete control, read-out: Blackgrass plant response rating",50%
same,"Plant response rating (0 to 100 scale), Morningglory",morningglory; [2],0
same,pest or weed control at 125 g/ha,"morningglory; Ipomoea, post-emergence, 336 h, 125 g ai/ha, visual rating, scale 0 (no effect) to 100 (complete control), read-out: Morningglory plant response rating",0%
same,pest or weed control at 500 g/ha,"morningglory; Ipomoea, post-emergence, 336 h, postemergence, 500 g ai/ha, scale 0 to 100, 0 is no effect, 100 is complete control, read-out: Morningglory plant response rating",10%
same,pest or weed control at 500 g/ha,"morningglory; Ipomoea, pre-emergence, 336 h, 500 g ai/ha, visual rating, 0 = no effect, 100 = complete control, read-out: Plant response rating, Morningglory",10%
same,"Plant response rating (0 to 100 scale), Lambsquarters",lambsquarters; [2],0
same,pest or weed control at 125 g/ha,"lambsquarters; Chenopodium album, post-emergence, 336 h, 125 g ai/ha, visual rating, scale 0 (no effect) to 100 (complete control), read-out: Lambsquarters plant response rating",0%
same,pest or weed control at 500 g/ha,"lambsquarters; Chenopodium album, post-emergence, 336 h, postemergence, 500 g ai/ha, scale 0 to 100, 0 is no effect, 100 is complete control, read-out: Lambsquarters plant response rating",20%
same,pest or weed control at 500 g/ha,"lambsquarters; Chenopodium album, pre-emergence, 336 h, 500 g ai/ha, visual rating, 0 = no effect, 100 = complete control, read-out: Plant response rating, Lambsquarters",40%
same,pest or weed control at 1000 g/ha,"[1]; Cyperus difformis, 336 h, read-out: Sedge, Umbrella plant response rating",90%
same,"Plant response rating (0 to 100 scale), Cocklebur",cocklebur; [2],0
same,pest or weed control at 125 g/ha,"cocklebur; Xanthium strumarium, post-emergence, 125 g ai/ha, visual rating, scale 0 (no effect) to 100 (complete control), read-out: Cocklebur plant response rating",10%
same,pest or weed control at 500 g/ha,"cocklebur; Xanthium strumarium, post-emergence, postemergence, 500 g ai/ha, scale 0 to 100, 0 is no effect, 100 is complete control, read-out: Cocklebur plant response rating",20%
same,pest or weed control at 500 g/ha,"cocklebur; Xanthium strumarium, pre-emergence, 500 g ai/ha, visual rating, 0 = no effect, 100 = complete control, read-out: Plant response rating, Cocklebur",0%
same,pest or weed control at 1000 g/ha,"ducksalad; Heteranthera limosa, 336 h, read-out: Ducksalad plant response rating",70%
same,pest or weed control at 1000 g/ha,"barnyardgrass; Echinochloa crus-galli, 336 h, read-out: Barnyardgrass plant response rating",40%
same,"Plant response rating (0 to 100 scale), Surinam Grass",Surinam grass; [2],20
same,pest or weed control at 125 g/ha,"Surinam grass; Urochloa decumbens, post-emergence, 125 g ai/ha, visual rating, scale 0 (no effect) to 100 (complete control), read-out: Surinam Grass plant response rating",10%
same,pest or weed control at 500 g/ha,"Surinam grass; Urochloa decumbens, post-emergence, postemergence, 500 g ai/ha, scale 0 to 100, 0 is no effect, 100 is complete control, read-out: Surinam Grass plant response rating",30%
same,pest or weed control at 500 g/ha,"Surinam grass; Urochloa decumbens, pre-emergence, 500 g ai/ha, visual rating, 0 = no effect, 100 = complete control, read-out: Plant response rating, Surinam Grass",50%
same,"Plant response rating (0 to 100 scale), Foxtail, Giant",giant foxtail; [2],50
same,pest or weed control at 125 g/ha,"giant foxtail; Setaria faberi, post-emergence, 336 h, 125 g ai/ha, visual rating, scale 0 (no effect) to 100 (complete control), read-out: Foxtail, Giant plant response rating",30%
same,pest or weed control at 500 g/ha,"giant foxtail; Setaria faberi, post-emergence, 336 h, postemergence, 500 g ai/ha, scale 0 to 100, 0 is no effect, 100 is complete control, read-out: Foxtail, Giant plant response rating",50%
same,pest or weed control at 500 g/ha,"giant foxtail; Setaria faberi, pre-emergence, 336 h, 500 g ai/ha, visual rating, 0 = no effect, 100 = complete control, read-out: Plant response rating, Foxtail, Giant",90%
same,"Plant response rating (0 to 100 scale), Corn",corn; [2],10
same,plant injury at 125 g/ha,"corn; Zea mays, post-emergence, 125 g ai/ha, visual rating, scale 0 (no effect) to 100 (complete control), read-out: Corn plant response rating",10%
same,plant injury at 500 g/ha,"corn; Zea mays, post-emergence, postemergence, 500 g ai/ha, scale 0 to 100, 0 is no effect, 100 is complete control, read-out: Corn plant response rating",20%
same,"Corn plant response rating (crop injury, 0 = no effect, 100 = complete kill) at 500 g/ha","corn; Zea mays, pre-emergence, 500 g ai/ha, visual rating, 0 = no effect, 100 = complete control",40%
same,plant injury at 1000 g/ha,"rice; Oryza sativa, 336 h, read-out: Rice plant response rating",50%
same,"Plant response rating (0 to 100 scale), Pigweed",pigweed; [2],20
same,pest or weed control at 125 g/ha,"pigweed; Amaranthus retroflexus, post-emergence, 336 h, 125 g ai/ha, visual rating, scale 0 (no effect) to 100 (complete control), read-out: Pigweed plant response rating",30%
same,pest or weed control at 500 g/ha,"pigweed; Amaranthus retroflexus, post-emergence, 336 h, postemergence, 500 g ai/ha, scale 0 to 100, 0 is no effect, 100 is complete control, read-out: Pigweed plant response rating",40%
same,pest or weed control at 500 g/ha,"pigweed; Amaranthus retroflexus, pre-emergence, 336 h, 500 g ai/ha, visual rating, 0 = no effect, 100 = complete control, read-out: Plant response rating, Pigweed",50%
Cc1nn(C(C)(C)C)nc1C(=O)Nc1cccc(C(=S)N(C)C)c1 [Compound 419],"Oat, Wild plant response rating",wild oat; [3],20
same,"Oat, Wild plant response rating",wild oat; [4],0
same,"Plant response rating (0 to 100 scale), Velvetleaf",velvetleaf; [2],70
same,Velvetleaf plant response rating,velvetleaf; [3],50
same,Velvetleaf plant response rating,velvetleaf; [4],20
same,Wheat plant response rating,"wheat; 500 g ai/ha, scale 0 to 100, 0 no effect, 100 complete control, preemergence",100
same,Wheat plant response rating,wheat; [3],20
same,Wheat plant response rating,wheat; [4],10
same,Blackgrass plant response rating,blackgrass; [3],30
same,Blackgrass plant response rating,blackgrass; [4],10
same,"Plant response rating (0 to 100 scale), Morningglory",morningglory; [2],50
same,Morningglory plant response rating,morningglory; [3],90
same,Morningglory plant response rating,morningglory; [4],80
same,"Plant response rating (0 to 100 scale), Lambsquarters",lambsquarters; [2],100
same,Lambsquarters plant response rating,lambsquarters; [3],90
same,Lambsquarters plant response rating,lambsquarters; [4],70
same,"Sedge, Umbrella plant response rating",[1],80
same,"Plant response rating (0 to 100 scale), Cocklebur",cocklebur; [2],30
same,Cocklebur plant response rating,cocklebur; [3],40
same,Cocklebur plant response rating,cocklebur; [4],20
same,Ducksalad plant response rating,ducksalad,70
same,Barnyardgrass plant response rating,barnyardgrass,90
same,"Plant response rating (0 to 100 scale), Surinam Grass",Surinam grass; [2],90
same,Surinam Grass plant response rating,Surinam grass; [3],30
same,Surinam Grass plant response rating,Surinam grass; [4],20
same,"Plant response rating (0 to 100 scale), Foxtail, Giant",giant foxtail; [2],90
same,"Foxtail, Giant plant response rating",giant foxtail; [3],30
same,"Foxtail, Giant plant response rating",giant foxtail; [4],30
same,"Plant response rating (0 to 100 scale), Corn",corn; [2],70
same,Corn plant response rating,corn; [3],30
same,Corn plant response rating,corn; [4],20
same,Rice plant response rating,rice,80
same,"Plant response rating (0 to 100 scale), Pigweed",pigweed; [2],100
same,Pigweed plant response rating,pigweed; [3],80
same,Pigweed plant response rating,pigweed; [4],60

# Reference: US20060069132A1, “Azolecarboxamide herbicides” (priority 2004, published 2006)
